Experimental data: the METLIN SMRT retention time set (Domingo-Almenara et al. 2019)

Assay: gradient 5% acetonitrile 3 min, to 50% in 2 min, to 85% in 15 min, held 3 min, 100 µL/min
Settings: column: Zorbax Extend-C18 2.1 x 50 mm; eluents: water / acetonitrile, 0.1% formic acid
How it was run: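 Each retention time is based on an adduct peak selected computationally and verified by manual inspection. Measurements used HPLC–quadrupole time-of-flight mass spectrometry in positive and negative ionization mode on mixtures of ~100 pure standards. Chromatography ran on a Zorbax Extend-C18 column (2.1 × 50 mm, 1.8 μm) at 100 μL/min with water and acetonitrile, each containing 0.1% formic acid, and dead and dwell volumes of 40 μL and 900 μL.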

| RP-LC retention time [s] | Compound |
| --- | --- |
| 646 | Cn1cc(-c2ccncc2)cc1C(=O)NCc1ccccc1Cl |
| 862 | O=C(Nc1cc(-c2cccs2)no1)C1CCC1 |
| 751 | COCCc1noc(C2CN(S(=O)(=O)c3ccccc3)C2)n1 |
| 1240 | Cc1cc(C)n(-c2ncnc3c2cnn3Cc2ccccc2)n1 |
| 739 | COC(=O)CNC(=O)N1CCCC1c1ccc(C)cc1 (stereo not drawn) |
| 593 | CCN(Cc1nc2ccccc2n1C)c1ccccc1 |
| 876 | COc1ccc(CNC(=O)C2=C3CCCN3c3ccc(F)cc3S2(=O)=O)cc1 |
| 890 | CC(C)CCNC(=O)C1CCN(c2nc3ccsc3c(=O)n2Cc2ccccc2)CC1 |
| 699 | CCCc1ccc(S(=O)(=O)N2CCN(c3nc4ccncc4n(C)c3=O)CC2)cc1 |
| 1240 | CCCN(C(=O)CC(=O)OC)c1nc(-c2ccc(Br)cc2)cs1 |
| 1390 | Fc1ccccc1N1CCN(c2ncccc2-c2nc(-c3ccccc3)no2)CC1 |
| 615 | CCc1nnc2cc(N3CCN(C(=O)c4ccc(OC)cc4)CC3)cnn12 |
| 662 | COCCN(Cc1ccc(Cl)cc1)Cc1cc(=O)n2cc(C)ccc2n1 |
| 1130 | Cc1cccc(Oc2nccnc2N2CCC(C(=O)NCCC3=CCCCC3)CC2)c1 |
| 873 | COc1cccc(CNC(=O)Cn2c(-c3ccc(F)cc3)ncc(C#N)c2=O)c1 |
| 1040 | CC(C)c1ccc(N2C=C(C#N)S(=O)(=O)c3ccccc32)cc1 |
| 744 | CCn1cc(-c2nc(-c3ccccn3)no2)c(=O)c2cc(F)c(N3CCOCC3)cc21 |
| 1140 | COCCNC(=O)NC1CCN(C2=NS(=O)(=O)C(c3ccc(C)cc3)=C2C)CC1 |
| 961 | CC(C)OCCCNC(=O)CN1c2ccc(Br)cc2-c2ccccc2S1(=O)=O |
| 790 | Cc1ccc(C)c(CN2CCCN(c3ncccc3-c3nc(C(C)C)no3)CC2)c1 |
| 705 | O=C(NCC1CCCO1)c1cn(-c2ccc(S(=O)(=O)N3CCCC3)cn2)cn1 (stereo not drawn) |
| 852 | COc1cccc(-c2noc(CCn3nc(-c4ccc5c(c4)OCO5)ccc3=O)n2)c1OC |

| RP-LC retention time [s] | Compound |
| --- | --- |
| 816 | Cc1ccc(-c2cn3cccnc3n2)cc1NC(=O)c1ccc(C(C)(C)C)cc1 |
| 904 | CC(=O)Oc1ccc(C(=O)N2CCCc3ccccc32)cc1 |
| 673 | O=C(Cc1ccccc1)Nc1c(C(=O)N2CCN(c3ccccn3)CC2)oc2ccccc12 |
| 703 | COc1ccc(-c2coc3cc(OCC(=O)O)ccc3c2=O)cc1OC |
| 710 | CCC(C)NC(=O)CC1CCN(C(=O)c2ccc3oc(C4CC4)nc3c2)CC1 (stereo not drawn) |
| 550 | COCCN1CC(CO)C2(CCN(Cc3ccc(F)c(Cl)c3)CC2)C1 (stereo not drawn) |
| 860 | O=C(c1ccco1)N1CCCC1c1nc(-c2ccc(F)cc2F)no1 (stereo not drawn) |
| 724 | Cc1[nH]c(C)c(S(=O)(=O)N2CCC(C(=O)N3CCCCC3C)CC2)c1C(=O)N1CCCCC1 (stereo not drawn) |
| 967 | Cc1ccc(C)c(NC(=O)N2CCCC(C)(C(=O)NCc3ccccc3)C2)c1 (stereo not drawn) |
| 671 | CN1CCn2cc(S(=O)(=O)Nc3ccc(F)cc3F)cc2C1=O |
| 998 | CC(C)c1nc(-c2ccc(C(=O)NCc3noc(COc4ccccc4)n3)cc2)no1 |
| 1020 | CC(C)(C)NC(=O)N[C@H](C(=O)N1C[C@H]2[C@@H]([C@H]1C(=O)NC(CC1CCC1)C(=O)C(N)=O)C2(C)C)C(C)(C)C (stereo partly drawn) |
| 888 | Cc1cc(C)c(S(=O)(=O)N2CCC(c3cc4n(n3)CCCN(C)C4=O)CC2)cc1C |
| 790 | Cc1cc(C(=O)N2CCCCC2)c2c(=O)n(CC(=O)NCCC(C)C)c(=O)n(C)c2n1 |
| 1240 | O=C(NCc1cccc(Cl)c1)c1c(O)c2cccnc2n(-c2cccc(F)c2)c1=O |
| 1240 | Cc1nn(-c2nc(-c3ccc(F)cc3)cs2)c(C)c1CC(=O)Nc1ccc(Br)cc1 |
| 972 | CCCCN1C(=O)C(C)(C(=O)NCc2ccccc2)Oc2cccnc21 (stereo not drawn) |
| 623 | CCc1nnc2nc(N3CCN(C(=O)Cc4cc(OC)cc(OC)c4)CC3)cc(C)n12 |
| 736 | O=C(Cn1c(=O)c2cc(C3CC3)nn2c2ncccc21)Nc1ccc2c(c1)OCCO2 |
| 640 | CCc1nnc(-c2ccc3ccn(CC(=O)NCc4ccc(N(C)C)cc4)c3c2)o1 |
| 685 | CCc1ccc(-c2nc(-c3ccc4c(c3)ncn4CCN3CCOCC3)no2)cc1 |
| 588 | COCCNC(=O)NCCn1c(-c2ccc(C)cc2)nc2cccnc21 |

| RP-LC retention time [s] | Compound |
| --- | --- |
| 980 | COC(=O)C1=CN(C2CC2)c2cc(N3CCCCCC3)c(F)cc2S1(=O)=O |
| 579 | CCCc1nc2cccnc2n1C1CCN(C(=O)c2ccc(N3CCCC3=O)cc2)C1 (stereo not drawn) |
| 881 | Cc1ccc(-c2nnc(N3CCC(C(=O)NCCC(C)C)CC3)o2)cc1 |
| 612 | CN(C)C(=O)CN1CCN(c2cc(C(=O)O)c3cc(NC(=O)c4cccc(Cl)c4)ccc3n2)CC1 |
| 852 | O=C(Cc1c(F)cccc1Cl)N1C[C@@H]2C[C@H]1C[C@@H]2NS(=O)(=O)c1ccccc1 |
| 1030 | O=C(Nc1nc(-c2ccc(-c3ccccc3)cc2)cs1)c1cccnc1 |
| 1230 | CC(C)c1ccc(S(=O)(=O)N2CCc3nc(-c4ccccc4)ncc3C2)cc1 |
| 913 | CC(=O)c1cccc(N2C(=O)COc3ccc(Br)cc3C2C(=O)NC2CCCC2)c1 (stereo not drawn) |
| 574 | COc1ccc(NC(=O)c2cn3c(n2)CCCC3)cc1 |
| 654 | O=C(Cn1c(=O)c(=O)n(Cc2ccc(Cl)cc2)c2ccccc21)N1CCN(c2ccccn2)CC1 |
| 584 | Cc1cccc(NC(=O)C(=O)NCCN2CCN(c3ccc(F)cc3)CC2)c1C |
| 636 | Cc1ccccc1CC(=O)N1CCN(c2nc(CN3CCOCC3)cs2)CC1 |
| 1180 | CCc1nc2cc(-c3noc(-c4ccc(OC)nc4)n3)ccc2o1 |
| 713 | CCC1CCCCN1C(=O)c1cnc2nc(C)ccc2c1Nc1cccc(SC)c1 (stereo not drawn) |
| 742 | CC1CCCN(c2ccn3c(=O)n(CC(=O)N(C)c4ccccc4)nc3n2)C1 (stereo not drawn) |
| 831 | CCc1nc(OCC(=O)Nc2ccccc2Cl)c2ccccc2n1 |
| 577 | CCN1CCN(S(=O)(=O)c2cc(-c3[nH]ncc3C(=O)N3CCCC3)oc2C)CC1 |
| 768 | CCC(=O)N1CCc2cn(C)c3cccc(c23)C1 |
| 875 | COc1ccccc1Nc1c(-c2ccccc2)nc2cnccn12 |
| 1090 | COc1ccc(CNC(=O)CSc2cc(N3CCN(c4ccc(OC)cc4)CC3)ncn2)cc1 |
| 832 | O=C(NCCc1ccccc1)C(=O)NCCc1cccs1 |
| 1440 | Cc1cccc2cc(-c3noc(-c4ccccc4)n3)c(NCCc3ccc(S(N)(=O)=O)cc3)nc12 |

| RP-LC retention time [s] | Compound |
| --- | --- |
| 860 | CCN1c2ccccc2C(=O)NC12CCN(C(=O)Nc1ccc(C)c(C)c1)CC2 |
| 917 | CCOC(=O)c1ccc(N2C=C(C#N)S(=O)(=O)c3ccccc32)cc1 |
| 819 | O=C(CN1C(=O)CCCc2cc(S(=O)(=O)N3CCCCC3)ccc21)N1CCCCC1 |
| 735 | CC1(C(=O)N2CC(F)(F)C[C@H]2c2nc(-c3ccncc3)no2)CC1 |
| 966 | CCOC(=O)c1ccccc1NC(=O)Cn1c(=O)n(-c2cccc(C)c2)c(=O)c2c1cc(C)n2C |
| 1100 | CCCN1C(=O)c2cc(S(=O)(=O)Nc3ccc(C)cc3)ccc2Oc2cccnc21 |
| 772 | COc1ccc(OC)c(S(=O)(=O)N2CCOCCNC(=O)[C@H]3CCCC[C@H]32)c1 |
| 652 | Cc1ccn2cc(-c3ccc(NC(=O)c4ccccc4Cl)cc3)nc2n1 |
| 802 | Cc1ccccc1Nc1c(-c2cccc(Cl)c2)nc2cccc(C)n12 |
| 810 | CCc1nnc(-c2cc(NS(=O)(=O)CC)c(C)s2)o1 |
| 999 | CCCS(=O)(=O)c1nc2ccc(NS(=O)(=O)c3ccc4c(c3)CCC4)cc2s1 |
| 654 | CCOC(=O)c1c(C)oc2nc(C)nc(N3CCN(c4ccccn4)CC3)c12 |
| 1410 | COc1cccc(-c2nc(-c3ccc4oc(-c5ccccc5)nc4c3)no2)c1OC |
| 1070 | CCOc1ccc(NC(=O)Cn2c(C)nc3c(sc4nc(-c5ccccc5)ccc43)c2=O)cc1 |
| 1080 | Oc1ccc(Br)cc1-c1nc2ncccn2c1Nc1cccc(C(F)(F)F)c1 |
| 708 | CCN(CC)S(=O)(=O)N1CCC(C(=O)N2CCN(Cc3noc4ccccc34)CC2)CC1 |
| 705 | Cc1c(Cl)cccc1Nc1c(-c2ccc(O)cc2)nc2ncccn12 |
| 747 | CCN1C(=O)c2cccnc2Sc2cc(CNC(=O)c3cccn3C)ccc21 |
| 842 | CC(NC(=O)Cn1c(C(F)(F)F)nc2ccccc21)c1ccc2c(c1)OCCCO2 (stereo not drawn) |
| 629 | C#CCn1c(=O)c2c(ncn2C)n(C)c1=O |

| Compound | RP-LC retention time [s] |
| --- | --- |
| CCCN(CCC)CCc1c[nH]c2ccc(C(N)=O)cc12 | 640 |
| CCCn1cc(C(=O)NC(C)c2cccnc2)c2cccnc21 (stereo not drawn) | 597 |
